Like-named read-outs stand apart in the source and are kept apart here.
Tests used:
[1] = Log P, partition between n-octanol and PBS; type: physicochemical; details: partition coefficient between 1-octanol and PBS
How it was run: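 Sample from 100 μM stock added to equal volumes of n-octanol and PBS, vortexed 5 min at rt, centrifuged. Each layer diluted into DMF and emission spectra recorded; log P taken as log of octanol/PBS integrated fluorescence ratio, mean of triplicates.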

[2] = Fluorescence quantum yield, comparative method; type: physicochemical; details: in DMF; ZnPc as reference
How it was run: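 ΦF determined by the comparative method against ZnPc (ΦF 0.32 in THF), using integrated emission area, absorbance at the excitation wavelength and solvent refractive index. Q-band absorbance kept below 0.05; estimated error ± 15%.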

[3] = Absorption and fluorescence emission spectra in DMF; type: physicochemical; details: in DMF
Protocol: (§1) An absorption spectrum of 2.475 mL of solvent (water, DMF, or PBS) was taken (i.e., absorption spectrum of baseline); then, 25 μL of stock solution was added to reach the final concentration of 1 μM in the cuvette, and the absorption and emission spectra were taken. Baseline of the solvent was subtracted from the obtained absorption spectrum to get the final absorption spectrum of the sample.

[4] = tested on: MCF-7 (human breast adenocarcinoma); test: Photodynamic activity (phototoxicity, neutral red uptake) on MCF-7; type: cell-based; details: 12 h incubation, Xe-lamp 15 min, λ > 570 nm, 11.2 J/cm^2; mean ± SD; t.w. = this work
[5] = tested on: HeLa (human cervical carcinoma); details: 12 h incubation, Xe-lamp 15 min, λ > 570 nm, 11.2 J/cm^2; mean ± SD; determined previously under the same conditions at the same workplace and published; ref number not given; read-out: EC50 (nM) HeLa; cited from earlier work
[6] = tested on: SK-MEL-28 (human skin melanoma); design: method as in number not printed in Table 2; details: 12 h incubation, Xe-lamp 15 min, λ > 570 nm, 11.2 J/cm^2; mean ± SD; determined previously under the same conditions at the same workplace and published; ref number not given; cited from earlier work
[7] = Quantum yield of singlet oxygen production, comparative method with DPBF scavenger; type: physicochemical; details: in DMF, ZnPc as reference
How it was run: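 Dye added from 100 μM DMF stock (or DMF/water, water); irradiated under stirring with xenon lamp through water filter and OG530 cut-off (>523 nm). DPBF decay followed at 415 nm; ΦΔ from ln(A0/At) slopes versus reference, normalised to absorbed light summed over 523–850 nm; triplicate means, ±10% error.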

[8] = Aggregation / monomerization in aqueous media (spectra in water and PBS); type: physicochemical; details: 1 μM
Protocol: as §1

[9] = Fluorescence lifetime in DMF; type: physicochemical
Text: 1 Photophysical Data of Investigated Derivatives in DMF ^a | column: τF1/ns; τF2/ns

[10] = tested on: MCF-7 (human breast adenocarcinoma); design: method as in number not printed in Table 2; details: 12 h incubation, Xe-lamp 15 min, λ > 570 nm, 11.2 J/cm^2; mean ± SD; determined previously under the same conditions at the same workplace and published; ref number not given; cited from earlier work

Compound: CC[N+](CC)(CC)CCSc1ccc(SCC[N+](CC)(CC)CC)c2c1C1=NC2=Nc2c3c(SCC[N+](CC)(CC)CC)ccc(SCC[N+](CC)(CC)CC)c3c3[n]2[Zn][n]2c(c4c(SCC[N+](CC)(CC)CC)ccc(SCC[N+](CC)(CC)CC)c4c2=NC2=NC(=N3)c3c(SCC[N+](CC)(CC)CC)ccc(SCC[N+](CC)(CC)CC)c32)=N1.[I-].[I-].[I-].[I-].[I-].[I-].[I-].[I-] [C9Zn]
- Log P [1]: –1.65
- ΦF, fluorescence quantum yield [2]: 0.06
- ε, extinction coefficient [3]: 134 170 M^–1cm^–1
- λA, absorption maximum in the Q-band [3]: 757 nm
- λF, fluorescence emission maximum [3]: 783 nm
- EC50 [4]: 210 ± 10 nM
- EC50 [5]: 310 ± 121 nM
- EC50 [6]: 220 ± 21 nM
- ΦΔ, quantum yield of singlet oxygen production [7]: 0.64
- aggregation / monomeric state [8]: did not sufficiently suppress aggregation

Compound: Cc1cc(Cn2cc[n+](C)c2)c(Oc2c3c(c(C)c(C)[n+]2C)C2=Nc4c5c(Oc6c(Cn7cc[n+](C)c7)cc(C)cc6Cn6cc[n+](C)c6)[n+](C)c(C)c(C)c5c5[n]4[Zn][n]4c(c6c(C)c(C)[n+](C)c(Oc7c(Cn8cc[n+](C)c8)cc(C)cc7Cn7cc[n+](C)c7)c6c4=NC4=NC(=N5)c5c4c(C)c(C)[n+](C)c5Oc4c(Cn5cc[n+](C)c5)cc(C)cc4Cn4cc[n+](C)c4)=NC3=N2)c(Cn2cc[n+](C)c2)c1.[I-].[I-].[I-].[I-].[I-].[I-].[I-].[I-].[I-].[I-].[I-].[I-] [C11Zn]
- Log P [1]: –2.25
- ΦF, fluorescence quantum yield [2]: 0.21
- ε, extinction coefficient [3]: 160 750 M^–1cm^–1
- λA, absorption maximum in the Q-band [3]: 716 nm
- λF, fluorescence emission maximum [3]: 726 nm
- EC50 [5]: 3.8 ± 0.2 nM
- EC50 [6]: 3.8 ± 0.6 nM
- ΦΔ, quantum yield of singlet oxygen production [7]: 0.53
- aggregation / monomeric state [8]: full monomerization
- τF1, fluorescence lifetime (relative amplitude in brackets) [9]: 1.41 ns
- EC50 [10]: 2.8 ± 0.1 nM

Compound: CC[N+](CC)(CC)CCSc1cc2c(cc1SCC[N+](CC)(CC)CC)C1=Nc3c4cc(SCC[N+](CC)(CC)CC)c(SCC[N+](CC)(CC)CC)cc4c4[n]3[Zn][n]3c(c5cc(SCC[N+](CC)(CC)CC)c(SCC[N+](CC)(CC)CC)cc5c3=NC3=NC(=N4)c4cc(SCC[N+](CC)(CC)CC)c(SCC[N+](CC)(CC)CC)cc43)=NC2=N1.[I-].[I-].[I-].[I-].[I-].[I-].[I-].[I-] [C8Zn]
- Log P [1]: –1.59
- ΦF, fluorescence quantum yield [2]: 0.29
- ε, extinction coefficient [3]: 281 600 M^–1cm^–1
- λA, absorption maximum in the Q-band [3]: 704 nm
- λF, fluorescence emission maximum [3]: 714 nm
- EC50 [4]: 280 ± 40 nM
- EC50 [5]: 540 ± 90 nM
- EC50 [6]: 320 ± 48 nM
- ΦΔ, quantum yield of singlet oxygen production [7]: 0.63
- aggregation / monomeric state [8]: did not sufficiently suppress aggregation
